# Results as given in patent US20250282779A1, “SUBSTITUTED 5,6,7,8-TETRAHYDROPYRIDO[2,3-D]PYRIMIDINE-2,4-DIONES FOR TREATING CARDIAC DISEASES” (MYOKARDIA, INC., priority 2018, published 2025).
# Key:
# bovine cardiac myosin [1] = target: T1, bovine cardiac myosin (Bos taurus (Bovine), UniProt Q9BE39); test: Myosin inhibition assay (bcMF pCa 6 IC50); type: biochemical; details: bovine cardiac myofibrils, calcium giving 50% activation
# Method: Myosin inhibition assay (bcMF pCa 6IC50 (μM))
# Small molecule agents were assessed for their ability to inhibit the enzymatic activity of bovine cardiac myosin using a biochemical assay that couples the release of ADP (adenosine diphosphate) from cardiac myosin to an enzymatic coupling system consisting of pyruvate kinase and lactate dehydrogenase (PK/LDH) and monitoring the absorbance decrease of NADH (at 340 nm) as a function of time. PK converts ADP to ATP (adenosine triphosphate) by converting PEP (phosphoenolpyruvate) to pyruvate. Pyruvate is then converted to lactate by LDH by converting NADH (nicotinamide adenine dinucleotide) to NAD (oxidized nicotinamide adenine dinucleotide). The source of cardiac myosin was from bovine heart in the form of skinned myofibrils. Prior to testing small molecule agents, the bovine myofibrils were assessed for their calcium responsiveness and the calcium concentration that achieves a 50% activation of the myofibril system was chosen as the final condition for assessing the inhibitory activity of the small molecule agents. All enzymatic activity was measured in a buffered solution containing 12 mM PIPES (piperazine-N,N′-bis(2-ethanesulfonic acid), 2 mM magnesium chloride at pH 6.8 (PM12 buffer). Final assay conditions were 1 mg/mL of bovine cardiac myofibrils, 0.4 mM PK/LDH, 50 uM ATP, 0.1 mg/mL BSA (bovine serum albumin), 10 ppm antifoam, 2 mM BME, 0.5 mM NADH, and 1.5 mM PEP at the desired free calcium concentration required to achieve 50% activation of the myofibrils.
# A dilution series of compound was created in DMSO such that the final desired concentration of compound would be achieved in a volume of 30 μL with a fixed DMSO concentration of 3.3% (v/v). Typically 1 μL of the dilution series were added to 384 well plate to achieve a 10 point dose response. Following the addition of 14 μL of a solution containing bovine cardiac myofibrils, PK/LDH and a solution of calcium (that achieved 50% activation), the enzymatic reaction was started with the addition of 15 μL of a solution containing ATP, PEP and NADH. The reaction progress was followed in a PerkinElmer Envision plate reader at ambient temperature using clear bottom plates. The plate reader was configured to read absorbance at 340 nm in kinetics mode for 15 minutes. Data were recorded as the slope of the absorbance response to time. The slopes of the absorbance response as a function of time were normalized to slopes on the plate containing DMSO. This normalized rate was then plotted as a function of small molecule concentration and the data was fitted to a four-parameter fit using EXCEL XLfit. The IC50 is the concentration at which fifty percent of the total response is inhibited.
# [2] = Reactive metabolite identification (glutathione adducts); type: in vitro ADME, human
# Method: Reactive Metabolite Identification
# In vitro determination of reactive metabolite formation for small molecules by detection of glutathione adducts formed in vitro in incubations with human liver microsomes fortified with NADPH and glutathione.
# Methods: The metabolism of small molecules (30 μM) for glutathione adduct formation was assessed in incubations (200 μL volume, […], 60 min incubation time) with liver microsomes from human (1 mg/mL protein) conducted in potassium phosphate buffer (0.1 M, pH 7.4) for 1 h at 37° C. in a 96-well plate (2 mL well volume) and were performed in the absence of NADPH (used as a negative control) and in the presence of NADPH (1 mM) and glutathione (GSH, 10 mM). Incubations with liver microsomes were performed in a shaking water bath incubator with slow horizontal shaking (30 rpm). To obtain 30 μM incubation concentration of a compound, a 3 mM substrate stock solution in DMSO was used. Final incubation mixtures contained 148 μL of potassium phosphate buffer, 10 μL of liver microsome solution (20 mg protein/mL), 2 μL of the 3 mM substrate solution and where incubations were initiated by the addition of 40 μL of NADPH solution (5 mM dissolved in potassium phosphate buffer). Non-NADPH containing incubations were supplemented with 40 μL of potassium phosphate buffer. Post-incubation, reactions were terminated by adding an equal volume of acetonitrile containing 20 nM carbamazepine internal standard and 3% formic acid. Quenched samples then were centrifuged (4,600 rpm, 4° C., 10-min) after which the supernatants were transferred to a 96-well LC-MS sample analysis plate and diluted with one volume equivalent of HPLC-grade water, and then heat sealed with aluminum foil prior to analysis by liquid chromatography/mass spectrometry (LC-MS/MS).
# Analyte identification: The LC-MS/MS detection (with in-line UV detection at 280 nm) of test compounds and potential GSH-adducts was focused on extracting selected ion chromatographic profiles using the protonated molecular ion MH^+ m/z for parent to 4 decimal places, and corresponding protonated molecular ions of predicted GSH-adduct metabolites (m/z MH^+ parent+305.0681 amu) using Xcalibur software (version 2.1.0, Thermo Fisher Scientific, Waltham, MA). Relative GSH-adduct abundance in vitro in liver microsome extracts was assessed using the LC/UV absorbance at 280 nm peak area ratio obtained by using Xcalibur software (version 2.1.0) between the detected GSH-adducts from NADPH- and GSH-fortified incubation extracts and the corresponding LC/UV peak area of the parent compound from minus NADPH containing incubation extracts. The extent of GSH-adduct formation was determined by LC-MS/MS analysis with in-line LC-UV detection at 280 nm by dividing the glutathione-adduct LC/UV peak area by the LC/UV peak area of the corresponding parent HCM-1 NG analog determined from analysis of control (-NAPDH, -GSH) incubations extracts.
# Materials: Pooled male human (HLM, 50 donors) liver microsomes were obtained from Bioreclamation IVT (Baltimore, MD). Glutathione (GSH) and NADPH were purchased from Sigma Chemical Co. (St. Louis, MO). All solvents used for liquid chromatography-tandem mass spectrometry (LC-MS/MS) analyses were of chromatographic grade.
# LC-MS Conditions: Extracts from incubations with liver microsomes and hepatocytes were characterized by LC-MS and LC-MS/MS on a Thermo Electron LTQ Orbitrap XL mass spectrometer coupled with a Dionex UltiMate 3000 UHPLC containing in-line diode array detection and an OAS-3300TXRS Autosampler (40 μL injection volume). Electrospray ionization (ESI) was employed in the positive ion mode with the needle potential held at 5.01 kV, a sheath flow rate of 35.02, aux flow rate of 9.99, a current of 2.6 uA, a capillary temperature of 325° C., and a capillary voltage of 15.99. Vacuum conditions used were an ion gauge pressure used was 2.33×10^−5 Torr and a convection gauge pressure of 0.90 Torr. […]
# bovine cardiac myosin [3] = target: T1, bovine cardiac myosin; test: Myosin inhibition assay (bcMF serum pCa 6 IC50), 10% human serum; type: biochemical; details: in the presence of 10% human serum
# Text: Myosin Inhibition Assay (bcMF Serum pCa 6 IC50 (μM))
# Inhibition of the enzymatic activity of bovine cardiac myosin associated with the release of ADP (adenosine diphosphate) at the calcium concentrate that achieves a 50% activation of the bovine cardiac myofibril system in the presence of 10% human serum. The procedure was the same as that bovin cardiac myosin inhibition assay (bcMF pCa 6 IC50 (μM)) but with the addition of 10% human serum.
# rabbit skeletal myosin = test: Myosin inhibition assay (rbskMF pCa 6 IC50); type: biochemical; details: cardiac vs rabbit skeletal myofibrils
# Text: Myosin inhibition assay (rbskMF pCa 6 IC50 (μM))
# Inhibition of the enzymatic activity of rabbit skeletal myosin associated with the release of ADP (adenosine diphosphate) at the calcium concentrate that achieves a 50% activation of the rabbit skeletal myofibril system. The procedure was the same as that of bovin cardiac myosin inhibition assay (bcMF pCa 6 IC50 (μM)) by replacing bovine cardiac myofibril with rabbit skeletal myofibril.
# physchem = details: pH 7.4, aqueous buffer, kinetic from dmso stock
# Method: After shaking at room temperature for 1.5 h, the mixture was filtered under vacuum through a 96-well filter plate, which was pre-washed with 100 μL of 70% ethanol per well. Subsequently, 70 μL of the filtrate was added into a well in a 96-well reading plate, which was pre-loaded with 70 μL of DMSO per well. The concentration of the sample in a well was determined on the basis of the intergration on LC with UV detection as compared to the standard curve of each compound established in DMSO.
# T1 sequence (Q9BE39 whole entry): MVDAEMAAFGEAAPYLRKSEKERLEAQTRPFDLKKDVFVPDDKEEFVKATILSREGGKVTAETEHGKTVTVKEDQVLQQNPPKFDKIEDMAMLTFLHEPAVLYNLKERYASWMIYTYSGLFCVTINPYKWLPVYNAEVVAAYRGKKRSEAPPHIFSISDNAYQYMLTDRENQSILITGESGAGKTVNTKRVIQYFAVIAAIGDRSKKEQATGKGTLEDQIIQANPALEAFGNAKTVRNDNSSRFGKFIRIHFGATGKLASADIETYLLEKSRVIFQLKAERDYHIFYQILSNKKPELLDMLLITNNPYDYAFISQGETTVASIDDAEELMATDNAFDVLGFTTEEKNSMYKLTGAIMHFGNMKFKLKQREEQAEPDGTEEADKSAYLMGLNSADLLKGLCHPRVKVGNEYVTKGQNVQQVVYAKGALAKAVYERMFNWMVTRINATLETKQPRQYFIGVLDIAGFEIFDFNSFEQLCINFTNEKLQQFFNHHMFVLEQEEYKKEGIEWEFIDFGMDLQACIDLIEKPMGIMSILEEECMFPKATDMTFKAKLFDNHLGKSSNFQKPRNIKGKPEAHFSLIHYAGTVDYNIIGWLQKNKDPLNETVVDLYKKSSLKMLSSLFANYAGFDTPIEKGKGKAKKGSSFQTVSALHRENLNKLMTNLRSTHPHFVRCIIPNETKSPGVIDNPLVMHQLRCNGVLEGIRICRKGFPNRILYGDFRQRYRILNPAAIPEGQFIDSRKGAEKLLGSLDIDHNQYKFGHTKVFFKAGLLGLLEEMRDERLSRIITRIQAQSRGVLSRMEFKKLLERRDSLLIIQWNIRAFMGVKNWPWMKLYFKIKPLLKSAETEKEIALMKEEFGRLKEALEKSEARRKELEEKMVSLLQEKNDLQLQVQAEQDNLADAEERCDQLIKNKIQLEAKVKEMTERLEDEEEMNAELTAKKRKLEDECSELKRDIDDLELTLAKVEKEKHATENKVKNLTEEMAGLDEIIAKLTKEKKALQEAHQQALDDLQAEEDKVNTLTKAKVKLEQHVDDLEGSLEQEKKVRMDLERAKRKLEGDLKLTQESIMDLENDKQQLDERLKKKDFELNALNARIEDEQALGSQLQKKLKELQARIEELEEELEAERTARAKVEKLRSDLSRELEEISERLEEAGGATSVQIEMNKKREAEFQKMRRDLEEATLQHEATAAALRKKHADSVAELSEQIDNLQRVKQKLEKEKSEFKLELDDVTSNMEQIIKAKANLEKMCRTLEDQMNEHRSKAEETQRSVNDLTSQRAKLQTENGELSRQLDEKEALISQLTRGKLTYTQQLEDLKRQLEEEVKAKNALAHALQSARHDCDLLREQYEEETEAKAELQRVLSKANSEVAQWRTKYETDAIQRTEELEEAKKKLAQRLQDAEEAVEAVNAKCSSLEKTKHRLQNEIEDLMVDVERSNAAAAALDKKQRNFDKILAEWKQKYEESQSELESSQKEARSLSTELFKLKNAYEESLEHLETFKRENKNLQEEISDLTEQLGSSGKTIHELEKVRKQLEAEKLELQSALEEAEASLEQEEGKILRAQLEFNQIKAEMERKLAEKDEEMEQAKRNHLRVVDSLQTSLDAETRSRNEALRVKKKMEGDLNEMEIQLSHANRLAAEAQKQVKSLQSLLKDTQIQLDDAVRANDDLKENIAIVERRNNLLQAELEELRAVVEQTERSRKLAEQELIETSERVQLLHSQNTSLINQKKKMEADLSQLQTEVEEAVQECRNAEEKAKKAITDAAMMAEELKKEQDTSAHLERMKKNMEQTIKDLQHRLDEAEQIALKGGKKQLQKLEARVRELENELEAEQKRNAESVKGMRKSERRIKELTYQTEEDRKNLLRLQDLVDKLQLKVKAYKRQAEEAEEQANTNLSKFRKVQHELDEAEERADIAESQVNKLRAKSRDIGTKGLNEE
# T1 sequence (P85100 whole entry partner): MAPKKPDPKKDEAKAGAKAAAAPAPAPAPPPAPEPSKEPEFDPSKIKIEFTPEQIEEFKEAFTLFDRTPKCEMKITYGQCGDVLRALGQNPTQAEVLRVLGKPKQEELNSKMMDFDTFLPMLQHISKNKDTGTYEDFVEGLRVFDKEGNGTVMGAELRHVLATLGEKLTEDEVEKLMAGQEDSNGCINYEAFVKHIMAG
# T1 sequence (Q3SZE5 whole entry partner): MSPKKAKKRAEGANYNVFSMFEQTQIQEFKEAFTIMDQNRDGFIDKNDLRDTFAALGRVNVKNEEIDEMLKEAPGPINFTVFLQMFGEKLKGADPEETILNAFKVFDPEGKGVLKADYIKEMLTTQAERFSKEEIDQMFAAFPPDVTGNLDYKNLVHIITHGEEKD
Structure (SMILES),IC50 (bovine cardiac myosin [1]; read-out: bcMF pCa_6 IC50 MEAN),Glutathione Adduct Detection in Human Liver Microsome Incubations (single measurement) [2],"Glutathione Adduct Detection in Human Liver Microsome Incubations, Average (triple measurements) [2]",IC50 (bovine cardiac myosin [1]; read-out: bcMF pCa 6 IC50),IC50 (bovine cardiac myosin [3]),Cardiac selectivity ratio vs rbskMF pCa 6 IC50 (rabbit skeletal myosin),"% GSH-adduct (+NADPH, +GSH) relative to parent (−NADPH, −GSH) ([2]; human liver microsomes, 30 μM, 60 min)",solubility kinetic at 1.5 h (physchem)
"Cc1ccc(F)c([C@@H]2Nc3[nH]c(=O)n(C4CCOCC4)c(=O)c3C[C@H]2F)c1 [Compound 4, (6R,7S)-6-fluoro-7-(2-fluoro-5-methylphenyl)-3-(tetrahydro-2H-pyran-4-yl)-5,6,7,8-tetrahydropyrido[2,3-d]pyrimidine-2,4(1H, 3H)-dione]",0.37 µM,Not Detected,Not Detected,,,,,
"O=c1[nH]c2c(c(=O)n1C1CCOCC1)C[C@H](F)[C@H](c1cccc(F)c1)N2 [Compound 1, (6S,7S)-6-fluoro-7-(3-fluorophenyl)-3-(tetrahydro-2H-pyran-4-yl)-5,6,7,8-tetrahydropyrido[2,3-d]pyrimidine-2, 4(1H, 3H)-dione]",3.03 µM,Not Detected,Not Detected,3.03 µM,3.7 µM,7.38,Not Detected,
"Cc1ccc(F)c([C@H]2Nc3[nH]c(=O)n(C4CCOCC4)c(=O)c3C[C@@H]2F)c1 [Compound 6, (6S,7R)-6-fluoro-7-(2-fluoro-5-methylphenyl)-3-(tetrahydro-2H-pyran-4-yl)-5,6,7,8-tetrahydropyrido[2,3-d]pyrimidine-2,4(1H,3H)-dione]",26.4 µM,Not Detected,Not Detected,,,,,
COC(=O)[C@H]1[C@H]2C[C@@H]3c4[nH]c5cc(OC)ccc5c4CCN3C[C@H]2C[C@@H](OC(=O)c2cc(OC)c(OC)c(OC)c2)[C@@H]1OC [Reserpine],,,,,,,,< 15 µM
O=c1[nH]c2c(c(=O)n1C1CCOCC1)C[C@@H](F)[C@@H](c1cccc(F)c1)N2 [Compound 12],23.2 µM,Not Detected,Not Detected,,,,,
O=c1[nH]c2c(c(=O)n1C1CCOCC1)C[C@H](F)[C@H](c1ccccc1F)N2 [Compound 9],5.59 µM,Not Detected,Not Detected,,,,,
O=c1[nH]c2c(c(=O)n1C1CCOCC1)C[C@@H](F)[C@H](c1ccccc1F)N2 [Compound 8],1.46 µM,Not Detected,Not Detected,,,,,
O=c1[nH]c2c(c(=O)n1C1CCOCC1)C[C@H](F)[C@H](c1cc(CO)ccc1F)N2,0.78 µM,,,,,,,
COc1ccc(F)c([C@@H]2Nc3[nH]c(=O)n(C4CCOCC4)c(=O)c3C[C@@H]2F)c1 [Compound 10],1.02 µM,Not Detected,Not Detected,,,,,
"Cc1ccc(F)c([C@H]2Nc3[nH]c(=O)n(C4CCOCC4)c(=O)c3C[C@H]2F)c1 [Compound 5, (6R,7R)-6-fluoro-7-(2-fluoro-5-methylphenyl)-3-(tetrahydro-2H-pyran-4-yl)-5,6,7,8-tetrahydropyrido[2,3-d]pyrimidine-2,4(1H, 3H)-dione]",20.8 µM,Not Detected,Not Detected,,,,,
"O=c1[nH]c2c(c(=O)n1C1CCOCC1)C[C@@H](F)[C@H](c1cccc(F)c1)N2 [Compound 2, (6R,7S)-6-fluoro-7-(3-fluorophenyl)-3-(tetrahydro-2H-pyran-4-yl)-5,6,7,8-tetrahydropyrido[2,3-d]pyrimidine-2,4(1H, 3H)-dione]",2.13 µM,Not Detected,Not Detected,2.13 µM,3.11 µM,10.71,,
C#Cc1ccc(F)c([C@@H]2Nc3[nH]c(=O)n(C4CCOCC4)c(=O)c3C[C@@H]2F)c1 [Compound 7],0.54 µM,,,,,,,
COc1ccc(F)c([C@@H]2Nc3[nH]c(=O)n(C4CCOCC4)c(=O)c3C[C@H]2F)c1 [Compound 11],0.49 µM,Not Detected,Not Detected,,,,,
